The values below are quoted from earlier work in patent US9072754B2, “Process for obtaining non-allergic propolis” (MR. GIUSEPPE MARIA RICCHIUTO, priority 2010, dated 2015).

The conditions of this data set: among the compounds of the LB-1 fraction of propolis; literature.

On to `CC(C)=CCOC(=O)/C=C/c1ccc(O)c(O)c1` [3-methyl-2-butenyl-caffeate, 3-methyl-2-butenyl caffeate], for which the allergenic effect entry is given as “the most allergenic effect”.
